We go through twelve compounds from patent US20250145633A1, “SUBSTITUTED FURANOPYRIMIDINE COMPOUNDS AS PDE1 INHIBITORS” (Dart NeuroScience, LLC, priority 2017, published 2025).

Bounds are passed on as bounds.

The first experiment concerns the target human PDE1B enzyme (Homo sapiens (Human), UniProt Q01064). As to the kind of experiment: IMAP TR-FRET PDE1B enzymatic assay. It is filed as biochemical. As to conditions: negative log of half-maximal molar inhibitory concentration; 200 nM FAM-cAMP; values given as bins. How it is done:
PDE1B inhibition was determined by an IMAP TR-FRET assay. The IMAP TR-FRET PDE assay was optimized for concentration of enzyme, Calmodulin, cAMP or cGMP substrate, DMSO tolerance, and incubation time.
Into each well of a solid white 1536 well plate (Corning) was dispensed 250 pg full-length recombinant NH-terminal GST tagged human PDE1B enzyme (BPS Bioscience Cat #60011, San Diego, CA) in 2.5 μL IMAP BSA reaction buffer (Molecular Devices, Sunnyvale, CA) containing 10 U/ml Calmodulin and 2.5 mM CaCl2) (Sigma Aldrich.) After a brief centrifugation, 30 nL of compound was added by transfer from 1 mM stock in DMSO using a Kalypsys 1536 Pintool. Plates were incubated for 5 minutes at room temperature before dispensing 1.5 μL of 533 nM 5-carboxy fluorescein (FAM)-labeled cAMP (Molecular Devices, Sunnyvale, CA) for a final concentration of 200 nM. After a brief centrifugation, the plates were incubated for 30 minutes at room temperature. The assay was terminated by adding 5 μL IMAP binding reagent/Tb complex (Molecular Devices, Sunnyvale, CA) to each well.
Plates were incubated for 1 hour at room temperature and were read on a Viewlux multimode plate reader (Perkin Elmer). The instrument was set to excite using the DUG11 filter and measure using 490/10 nm and 520/10 nm filters. Ratios of acceptor and donor were then calculated.
For IC50 calculations, the values of % efficacy versus a series of compound concentrations were then plotted using non-linear regression analysis of sigmoidal dose-response curves generated with the equation Y=[B+(T−B)]/[1+10((Log EC50−X)×Hill Slope)], where Y=percent activity, B=minimum percent efficacy, T=maximum percent efficacy, X=logarithm of compound and Hill Slope=slope factor or Hill coefficient. The IC50 value was determined by the concentration causing a half-maximal percent efficacy.
(In TR-FRET formats the signal depends on donor and acceptor labels being close together.)
Turning to `COc1ccc(C(C)NC(=O)c2c(C)oc3ncnc(NC4(C)CC4)c23)cc1OC` (stereo in doubt) [Example 556, N-[(1R)-1-(3,4-Dimethoxyphenyl)ethyl]-6-methyl-4-[(1-methylcyclopropyl)amino]furo[2,3-d]pyrimidine-5-carboxamide], the “PDE1b (pIC50)” value is recorded as >8.

Turning to `COc1ccc(C(C)NC(=O)c2c(C)oc3ncnc(NC4(C)CC4)c23)cc1` (stereo in doubt) [Example 560, N-[(1R)-1-(4-Methoxyphenyl)ethyl]-6-methyl-4-[(1-methylcyclopropyl)amino]furo[2,3-d]pyrimidine-5-carboxamide], the “PDE1b (pIC50)” value is on record as >8.

Take `Cc1oc2ncnc(NC3(C)CC3)c2c1C(=O)N1CCN(c2ccccc2)CC1` [Example 1, (6-Methyl-4-((1-methylcyclopropyl)amino)furo[2,3-d]pyrimidin-5-yl)(4-phenylpiperazin-1-yl)methanone]: the “PDE1b (pIC50)” value is reported as >8.

The experiment is the same for the next values; noted with them: negative log of half-maximal molar inhibitory concentration; 200 nM FAM-cAMP; values given as bins; read-out: PDE1b (pIC50) (converted).
In the case of `Cc1oc2ncnc(NC3(C)CC3)c2c1C(=O)N1CC[C@@H]2CCCC[C@H]2C1` (stereo in doubt) [Example 271, 5-[(4aS,8aR)-Decahydroisoquinoline-2-carbonyl]-6-methyl-N-(1-methylcyclopropyl)furo[2,3-d]pyrimidin-4-amine], the IC50 was 0.01 to 0.1 µM.

With `COc1ccc(C(C)NC(=O)c2c(C)oc3ncnc(NC4(C)CC4)c23)cc1` (stereo in doubt) [Example 480, N-[(1S)-1-(4-Methoxyphenyl)ethyl]-6-methyl-4-[(1-methylcyclopropyl)amino]furo[2,3-d]pyrimidine-5-carboxamide], the IC50 was 0.01 to 0.1 µM.

On to `COc1ccccc1C(C)NC(=O)c1c(C)oc2ncnc(NC3(C)CC3)c12` (stereo in doubt) [Example 482, N-[(1S)-1-(2-Methoxyphenyl)ethyl]-6-methyl-4-[(1-methylcyclopropyl)amino]furo[2,3-d]pyrimidine-5-carboxamide], for which the IC50 is 0.01 to 0.1 µM.

Turning to `Cc1oc2ncnc(NC3(C)CC3)c2c1C(=O)NC(C)c1ccc(F)cc1` (stereo in doubt) [Example 484, N-[(1R)-1-(4-Fluorophenyl)ethyl]-6-methyl-4-[(1-methylcyclopropyl)amino]furo[2,3-d]pyrimidine-5-carboxamide], the IC50 is 0.01 to 0.1 µM.

With `Cc1oc2ncnc(NC3(C)CC3)c2c1C(=O)NC(C)c1ncc(F)cn1` (stereo in doubt) [Example 518, N-[(1S)-1-(5-Fluoropyrimidin-2-yl)ethyl]-6-methyl-4-[(1-methylcyclopropyl)amino]furo[2,3-d]pyrimidine-5-carboxamide], the IC50 was 0.1 to 1 µM.

Consider `Cc1oc2ncnc(NC3(C)CC3)c2c1C(=O)NC(C)c1ncc(F)cn1` (stereo in doubt) [Example 615, N-[(1R)-1-(5-Fluoropyrimidin-2-yl)ethyl]-6-methyl-4-[(1-methylcyclopropyl)amino]furo[2,3-d]pyrimidine-5-carboxamide], for which the IC50 was 0.01 to 0.1 µM.

`Cc1oc2ncnc(NC3(C)CC3)c2c1C(=O)N1CCc2nc(C3CC3)ncc2C1` [Example 2, (2-Cyclopropyl-7,8-dihydropyrido[4,3-d]pyrimidin-6(5H)-yl)(6-methyl-4-((1-methylcyclopropyl)amino)furo[2,3-d]pyrimidin-5-yl)methanone]: the IC50 is 0.01 to 0.1 µM.

Take `Cc1oc2ncnc(NC3(C)CC3)c2c1C(=O)NC1(CF)CC1` [Example 3, N-(1-(fluoromethyl)cyclopropyl)-6-methyl-4-((1-methylcyclopropyl)amino)furo[2,3-d]pyrimidine-5-carboxamide]: the IC50 was 0.01 to 0.1 µM.

For the compound `COc1ncnc2c1CCN(C(=O)c1c(C)oc3ncnc(NC4(C)CC4)c13)C2` [Example 4, (4-Methoxy-5,8-dihydropyrido[3,4-d]pyrimidin-7(6H)-yl)(6-methyl-4-((1-methylcyclopropyl)amino)furo[2,3-d]pyrimidin-5-yl)methanone], the IC50 was 0.01 to 0.1 µM.
